From US20200231545A1, “CHARGED ION CHANNEL BLOCKERS AND METHODS FOR USE THEREOF” (President and Fellows of Harvard College, priority 2019, published 2020)
Where “and” joins values, the source holds several entries; their conditions need not be identical. Equal entries are not always repeated.

How the values were obtained:
Nav1.5 sodium channels = molecular target: T1, Nav1.5 sodium channels (Homo sapiens, UniProt Q14524); assay: Thallium flux assay, extracellular block of sodium channel in HEK293 cells; format: cell-based; conditions: HEK cells
T1 construct: expressed in transfected cells
Experimental: (§1) Charged sodium channel blockers were tested for extracellular block of voltage-gated sodium channels in a thallium flux assay. Briefly, human embryonic kidney (HEK293) cells stably expressing either the Nav1.5 or Nav1.7 sodium channels were plated in 384 well plates. After overnight culture at 37° C., the cell culture medium was replaced the thallium-sensitive FluxOR dye (FluxOR assay kit, Thermo Fisher). Following a 60 minute incubation at room temperature, the dye-loading solution was replaced with assay buffer and the plates were loaded into a FDSS 7000EX multi-well plate reader (Hamamatsu). Dye fluorescence was measured using Fluo-4 filters (excitation 470 nm, emission 540 nm) at 1 Hz. Baseline fluorescence was measured for 30 s, followed by the addition of 15 μL/well of charged sodium channel blocker compounds. 10 minutes after compound addition, the cells were stimulated with a Tl^+ stimulus buffer and fluorescence measured. Tetraethylammonium (TEA) was used to block Kv channels and veratridine to block Nav channel inactivation. The fluorescence data was normalized with respect to no veratridine stimulus buffer control in order to isolate and measure the Nav channel component of the thallium flux.

Nav1.7 sodium channels = molecular target: T2, Nav1.7 sodium channels (Homo sapiens, UniProt Q15858); assay: as above; format: cell-based
T2 construct: expressed in transfected cells
Experimental: as §1

[1] = test system: citric acid induced cough; assay: Citric acid induced cough in ovalbumin sensitized guinea pigs, inhaled treatment; format: in vivo, guinea pig; conditions: for inhibition of cough: inhaled one hour before 400 mM citric acid challenge, versus vehicle group; for Cough Count: total cough count of each individual animal, inhaled, one hour before citric acid
Experimental: Dunkin Hartley Guinea pigs were used in this study (male and female). On Day 0 all animals were sensitized with an intraperitoneal and subcutaneous injection of 50 mg chicken egg albumin (ovalbumin). Animals were administered 1 mL of a 50 mg/mL ovalbumin in 0.9% w/v saline solution via the intraperitoneal route and 0.5 mL of the same solution into 2 separate subcutaneous sites (1 mL in total divided between the left and right flank). All animals were administered a single intraperitoneal dose of pyrilamine (15 mg/kg) at a dose volume of 1 mL/kg approximately 30 minutes prior to ovalbumin challenge on Day 14 to inhibit histamine-induced bronchospasm. On Day 14, animals were challenged with aerosolised ovalbumin in 0.9% w/v saline (3 mg/mL) for 15 min.
Animals were placed in groups in an acrylic box. Then 8 mL of ovalbumin in saline was placed in each of two jet nebulisers (Sidestream®). Compressed air was passed through each nebuliser at approximately 6 L/min and the output of the nebulisers passed into the box containing the animals. On Day 15, approximately 24 hours after the inflammatory challenge with ovalbumin, animals were dosed with either vehicle, compound 1, or compound 2 by inhalation. One hour following the end of vehicle, compound 1, or compound 2 administration on Day 15, animals were placed into a whole body plethysmograph connected to a Buxco Finepointe system. All animals were then exposed to nebulized 400 mM citric acid for 7 minutes via an Aeroneb® nebuliser.
Cough counts and respiratory parameters (respiratory rate, tidal volume, minute volume and Penh) were recorded throughout the exposure period and for 10 minutes following the end of nebulization period.

human Nav1.7 channels = molecular target: T3, human Nav1.7 channels (Homo sapiens, UniProt Q15858); assay: Whole-cell patch clamp, use-dependent block of sodium current, compound dialyzed inside cells; format: cell-based; conditions: 10 micromolar intracellular; stimulation series 0.05 to 10 Hz; HEK293 hNav1.7
T3 construct: expressed in transfected cells
Experimental: Whole-cell recordings were made of currents carried by voltage-activated sodium channels in HEK293 cells stably expressing human Nav1.7 channels. Recordings were made using patch pipettes with resistances of 2-3.5 MO when filled with internal solution, consisting of 61 mM CsF, 61 mM CsCl, 9 mM NaCl, 1.8 mM MgCl2, 9 mM EGTA, 14 mM creatine phosphate (tris salt), 4 mM MgATP, and 0.3 mM GTP (tris salt), 9 mM HEPES, pH adjusted to 7.2 with CsOH. The shank of the electrode was wrapped with Parafilm in order to reduce capacitance and allow optimal series resistance compensation without oscillation. Seals were obtained and the whole-cell configuration established with cells in Tyrode's solution (155 mM NaCl, 3.5 mM KCl, 1.5 mM CaCl2), 1 mM MgCl2, 10 mM HEPES, 10 mM glucose, pH adjusted to 7.4 with NaOH) with 10 mM TEACl. To ensure complete dialysis with pipette solution containing the test compounds, recordings began after 5 to 10 minutes after establishment of the whole-cell configuration.
Currents were recorded at room temperature (21-23° C.) with an Axopatch 200 amplifier or […] amplifier and filtered at 5-10 kHz with a low-pass Bessel filter. The amplifier was tuned for partial compensation of series resistance (typically 70-80% of a total series resistance of 4-10 MO). Currents were digitized using a Digidata 1322A data acquisition interface controlled by pClamp9 or pClamp10 software (Axon Instruments) and analyzed using programs written in Igor Pro 4.0 (Wavemetrics, Lake Oswego, Oreg.). Currents were corrected for linear capacitative and leak currents determined using 5 mV hyperpolarizations delivered from the resting potential (usually −80 or −100 mV) and then appropriately scaled and subtracted.
Sodium currents were evoked by 30-msec depolarizations from −100 mV to −20 mV. To assay use-dependent block, pulses were delivered at series of increasing rates: 0.05 Hz for 1-min, 0.33 Hz for 1-min, 1 Hz for 1-min, 3 Hz for 1-min, 5 Hz for 30 seconds, 10 Hz for 30 seconds, with 1 minute rest between each series of pulses. […]

[2] = test system: endogenous Nav currents in TRPV1 expressing DRG neurons; assay: Patch clamp of sodium currents in DRG neurons after pretreatment with capsaicin + blocker; format: cell-based, mouse; conditions: 100 micromolar with 300 nM capsaicin for 30 minutes, then washed off
Experimental: Charged sodium channel blockers were tested for intracellular block of voltage-gated sodium currents after entry through activated TRPV1 channels in dissociated mouse dorsal root ganglia (DRG) neurons in vitro. DRG neurons from 8-week-old C57/B16 mice were removed and placed in DMEM containing 1% penicillin-streptomycin (Sigma), then treated for 90 minutes with 5 mg/mL collagenase, 1 mg/mL Dispase II (Roche). Cells were triturated in the presence of DNase I […] (50 U), centrifuged through 10% BSA (Sigma), resuspended in 1 mL of Neurobasal medium (Sigma)+1X B27 supplement (Thermo Fisher) and 1% penicillin-streptomycin, and plated onto 35-mm tissue culture dishes (Becton Dickinson) coated with 20 μg/mL laminin, at 8,000-9,000 cells per dish. Cultures were incubated at 37° C. under 5% CO2. Recordings were made at room temperature within 24 hours of plating. The DRG neurons were treated with 300 nM capsaicin alone or 300 nM capsaicin+100 μM charged sodium channel blocker in external solution for 30 minutes, after which the blocker was washed off with fresh external solution. Whole-cell voltage-clamp recordings of sodium currents were performed in small diameter DRG neurons and then the expression of TRPV1 measured by perfusion of 1 μM capsaicin. […]

T2 sequence (Q15858 whole entry): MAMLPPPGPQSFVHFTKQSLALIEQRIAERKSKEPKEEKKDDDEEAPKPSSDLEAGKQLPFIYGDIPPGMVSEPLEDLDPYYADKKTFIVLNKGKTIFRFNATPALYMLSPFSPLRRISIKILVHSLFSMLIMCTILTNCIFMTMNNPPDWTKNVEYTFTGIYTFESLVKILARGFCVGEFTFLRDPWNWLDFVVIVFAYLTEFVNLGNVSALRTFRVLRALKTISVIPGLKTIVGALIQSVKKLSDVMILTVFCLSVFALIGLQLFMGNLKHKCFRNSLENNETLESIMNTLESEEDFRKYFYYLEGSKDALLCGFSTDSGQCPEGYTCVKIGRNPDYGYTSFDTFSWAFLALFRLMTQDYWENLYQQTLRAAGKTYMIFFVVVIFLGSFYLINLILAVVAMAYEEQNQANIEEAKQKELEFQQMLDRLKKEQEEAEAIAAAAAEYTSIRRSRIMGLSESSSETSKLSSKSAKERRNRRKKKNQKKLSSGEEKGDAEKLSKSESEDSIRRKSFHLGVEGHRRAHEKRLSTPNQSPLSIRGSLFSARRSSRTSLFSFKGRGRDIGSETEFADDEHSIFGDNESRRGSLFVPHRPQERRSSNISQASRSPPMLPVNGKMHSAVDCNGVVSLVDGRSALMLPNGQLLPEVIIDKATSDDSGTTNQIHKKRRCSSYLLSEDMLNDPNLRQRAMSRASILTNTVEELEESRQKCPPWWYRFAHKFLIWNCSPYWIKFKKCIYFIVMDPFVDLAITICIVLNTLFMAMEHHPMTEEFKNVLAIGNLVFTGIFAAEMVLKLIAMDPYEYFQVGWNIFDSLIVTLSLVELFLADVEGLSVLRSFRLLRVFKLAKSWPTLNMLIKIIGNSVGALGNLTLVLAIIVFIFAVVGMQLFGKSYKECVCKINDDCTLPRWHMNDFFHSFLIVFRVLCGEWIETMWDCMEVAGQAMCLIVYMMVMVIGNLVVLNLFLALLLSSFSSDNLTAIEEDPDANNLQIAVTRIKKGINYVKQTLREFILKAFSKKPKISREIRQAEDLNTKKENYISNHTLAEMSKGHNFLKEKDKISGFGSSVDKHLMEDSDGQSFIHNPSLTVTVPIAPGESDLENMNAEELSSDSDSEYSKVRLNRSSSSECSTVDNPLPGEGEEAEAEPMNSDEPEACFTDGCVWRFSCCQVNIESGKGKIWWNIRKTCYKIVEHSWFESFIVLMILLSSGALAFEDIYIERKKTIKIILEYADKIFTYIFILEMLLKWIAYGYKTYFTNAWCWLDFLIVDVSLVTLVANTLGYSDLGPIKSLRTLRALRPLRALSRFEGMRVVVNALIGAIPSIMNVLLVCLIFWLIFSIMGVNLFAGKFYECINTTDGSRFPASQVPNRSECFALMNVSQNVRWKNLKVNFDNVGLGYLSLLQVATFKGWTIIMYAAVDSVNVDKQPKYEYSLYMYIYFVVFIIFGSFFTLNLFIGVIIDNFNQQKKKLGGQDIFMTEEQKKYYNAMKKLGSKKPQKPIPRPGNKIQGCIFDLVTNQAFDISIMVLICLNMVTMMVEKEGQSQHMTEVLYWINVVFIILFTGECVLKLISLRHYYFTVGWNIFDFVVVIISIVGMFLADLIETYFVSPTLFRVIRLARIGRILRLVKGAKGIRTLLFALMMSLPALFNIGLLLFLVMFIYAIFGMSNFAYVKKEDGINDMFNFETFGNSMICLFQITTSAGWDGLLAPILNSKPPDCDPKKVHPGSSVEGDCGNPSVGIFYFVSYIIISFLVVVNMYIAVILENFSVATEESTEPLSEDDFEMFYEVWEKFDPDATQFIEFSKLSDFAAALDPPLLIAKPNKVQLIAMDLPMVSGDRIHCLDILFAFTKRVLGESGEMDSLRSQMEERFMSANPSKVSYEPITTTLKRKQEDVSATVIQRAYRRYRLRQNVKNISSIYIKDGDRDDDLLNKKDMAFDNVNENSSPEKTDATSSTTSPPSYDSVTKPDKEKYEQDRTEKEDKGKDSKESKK
T3 sequence (Q15858 whole entry): as above
T1 sequence (Q14524 whole entry): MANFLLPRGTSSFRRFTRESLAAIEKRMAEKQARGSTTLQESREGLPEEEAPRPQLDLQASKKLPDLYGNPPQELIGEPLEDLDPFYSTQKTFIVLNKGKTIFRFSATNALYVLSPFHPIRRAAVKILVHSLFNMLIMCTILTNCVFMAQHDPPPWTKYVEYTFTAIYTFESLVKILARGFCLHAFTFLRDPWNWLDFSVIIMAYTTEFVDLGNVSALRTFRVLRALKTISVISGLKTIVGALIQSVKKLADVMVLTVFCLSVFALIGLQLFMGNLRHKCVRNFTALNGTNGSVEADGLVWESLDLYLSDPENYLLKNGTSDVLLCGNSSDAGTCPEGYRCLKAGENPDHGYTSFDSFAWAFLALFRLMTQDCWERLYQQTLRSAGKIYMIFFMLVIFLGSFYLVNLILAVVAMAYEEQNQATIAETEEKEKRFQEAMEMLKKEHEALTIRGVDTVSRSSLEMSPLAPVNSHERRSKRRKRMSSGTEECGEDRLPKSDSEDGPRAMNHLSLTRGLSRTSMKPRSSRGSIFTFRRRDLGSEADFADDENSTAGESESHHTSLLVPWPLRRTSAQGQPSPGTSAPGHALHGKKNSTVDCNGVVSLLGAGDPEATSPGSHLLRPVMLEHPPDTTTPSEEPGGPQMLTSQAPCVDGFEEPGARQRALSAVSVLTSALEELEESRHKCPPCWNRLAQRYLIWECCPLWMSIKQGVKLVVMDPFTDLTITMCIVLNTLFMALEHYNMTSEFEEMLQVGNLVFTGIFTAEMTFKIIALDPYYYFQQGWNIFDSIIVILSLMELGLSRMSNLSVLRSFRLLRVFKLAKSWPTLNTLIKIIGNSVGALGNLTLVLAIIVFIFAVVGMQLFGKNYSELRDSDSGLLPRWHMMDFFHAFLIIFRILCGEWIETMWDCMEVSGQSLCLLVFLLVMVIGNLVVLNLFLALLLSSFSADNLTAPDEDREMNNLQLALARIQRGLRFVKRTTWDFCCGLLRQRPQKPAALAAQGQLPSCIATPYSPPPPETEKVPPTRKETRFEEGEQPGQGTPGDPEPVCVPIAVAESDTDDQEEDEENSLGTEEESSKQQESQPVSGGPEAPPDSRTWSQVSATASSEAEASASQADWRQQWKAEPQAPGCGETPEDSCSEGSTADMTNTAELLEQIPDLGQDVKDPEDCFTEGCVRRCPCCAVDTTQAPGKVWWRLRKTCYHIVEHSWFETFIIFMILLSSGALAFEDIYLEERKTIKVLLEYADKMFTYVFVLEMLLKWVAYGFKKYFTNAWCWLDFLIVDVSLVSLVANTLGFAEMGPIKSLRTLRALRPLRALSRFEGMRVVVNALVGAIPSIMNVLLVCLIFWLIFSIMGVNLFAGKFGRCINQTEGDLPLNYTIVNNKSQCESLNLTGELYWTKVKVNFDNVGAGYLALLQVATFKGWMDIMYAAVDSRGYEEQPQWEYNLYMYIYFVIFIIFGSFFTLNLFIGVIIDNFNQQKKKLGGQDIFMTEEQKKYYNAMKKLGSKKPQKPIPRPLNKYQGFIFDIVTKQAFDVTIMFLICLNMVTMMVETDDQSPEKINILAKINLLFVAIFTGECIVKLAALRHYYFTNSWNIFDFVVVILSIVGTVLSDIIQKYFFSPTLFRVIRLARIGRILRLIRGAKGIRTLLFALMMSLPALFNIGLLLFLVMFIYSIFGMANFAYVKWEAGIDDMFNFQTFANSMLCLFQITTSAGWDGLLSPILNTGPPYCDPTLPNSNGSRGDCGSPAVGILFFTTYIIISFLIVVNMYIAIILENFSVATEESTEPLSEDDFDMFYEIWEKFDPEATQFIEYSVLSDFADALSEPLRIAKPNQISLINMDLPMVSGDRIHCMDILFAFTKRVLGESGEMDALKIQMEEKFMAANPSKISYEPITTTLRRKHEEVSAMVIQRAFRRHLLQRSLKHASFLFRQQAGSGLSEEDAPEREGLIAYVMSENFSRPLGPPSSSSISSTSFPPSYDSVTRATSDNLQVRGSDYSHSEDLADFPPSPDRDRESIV

CCC[N+]1(C(CC)C(=O)Nc2c(C)cccc2C)CCCCC1 (centres unmarked) [Compound 1, 1-(1-(2,6-dimethylphenylamino)-1-oxobutan-2-yl)-1-propylpiperidinium chloride]
extracellular block of Nav1.5 (Nav1.5 sodium channels; doses of up to 1 mM, applied extracellularly): did not exhibit significant extracellular block
extracellular concentration at which dose dependent block of Nav1.5 starts (Nav1.5 sodium channels; thallium flux, FIG. 3): ≥ 10 millimolar
Nav subtype selectivity (Nav1.7 sodium channels; Nav1.5 versus Nav1.7, thallium flux): did not display any Nav subtype selectivity
extracellular block of Nav1.7 (Nav1.7 sodium channels; doses of up to 1 mM, applied extracellularly, HEK cells): did not exhibit significant extracellular block
extracellular concentration at which dose dependent block of Nav1.7 starts (Nav1.7 sodium channels; thallium flux, HEK cells, FIG. 4): ≥ 10 millimolar
inhibition of cough [1]: 81%
Cough Count [1]: 4 (2×) and 0 (7×) and 2 and 7 and 6
sodium current remaining after use-dependent block, % of the initial value (human Nav1.7 channels): about 15%
sodium currents in DRG neurons versus capsaicin alone [2]: considerably smaller

CCCC(C(=O)Nc1c(C)cccc1C)[N+]1(CC)CCCCC1 (centres unmarked) [Compound 2, 1-(1-((2,6-dimethylphenyl)amino)-1-oxopentan-2-yl)-1-ethylpiperidin-1-ium]
inhibition of cough [1]: 65%
Cough Count [1]: 8 and 0 (5×) and 2 (2×) and 13 and 11 and 6 and 1
sodium current remaining after use-dependent block, % of the initial value (human Nav1.7 channels): about 14%

CC[N+](CC)(CC)CC(=O)Nc1c(C)cccc1C [QX-314, reference compound]
sodium current remaining after use-dependent block, % of the initial value (human Nav1.7 channels): about 62%
sodium currents in DRG neurons versus capsaicin alone [2]: robust block
